In patent US20220008397A1, “PHARMACEUTICAL COMPOSITION FOR THE TREATMENT OF OCULAR NEOVASCULARISATION” (NOVALIQ GMBH, priority 2019, published 2022):

Assays:
[1] = tested on: choroidal angiogenesis; assay: In vitro model of choroidal angiogenesis; format: cell-based; details: 20 ng/mL and 4 ng/mL
Procedure: The antiangiogenic effect of Tacrolimus was also tested in an in vitro model of choroidal angiogenesis and compared with dexamethasone.

[2] = Tamura et al., 2002; cited from earlier work
[3] = tested on: BMDMs (bone marrow derived macrophages); assay: In vitro study using BMDMs (culture of bone marrow derived macrophages), expression of angiogenic growth factors; format: cell-based

For `C=CC[C@@H]1/C=C(\C)C[C@H](C)C[C@H](OC)[C@H]2O[C@@](O)(C(=O)C(=O)N3CCCC[C@H]3C(=O)O[C@H](/C(C)=C/[C@@H]3CC[C@@H](O)[C@H](OC)C3)[C@H](C)[C@@H](O)CC1=O)[C@H](C)C[C@@H]2OC` [Tacrolimus], the “Dose dependence of the suppression of choroidal angiogenesis in vitro” value ([1]; 100 ng/mL) is given as “not dose-dependent”, the “Effect on choroidal angiogenesis in vitro” value ([1]; tacrolimus at 100 ng/mL) is given as “suppressed choroidal angiogenesis” and the “Ability to penetrate tissue barrier upon topical administration” value [2] is given as “poor ability to penetrate tissue barrier”. The “Expression of pro-angiogenic growth factors” value [3] was “can reduce the expression of pro-angiogenic growth factors”.
